# Measurements as given in patent US8696867B2, “Disulfo-type fluorescent whitening agents” (Blankophor GmbH & Co. KG, priority 2009, dated 2014).
# What was measured:
# [1] = Storage stability of approximately 20% aqueous solution; assay type: physicochemical; settings: approximately 20% solution, ambient temperature and 4° C., without stirring
# Experimental: The stability behavior was studied by storing an approximately 20% solution of FWA 1 and FWA 2, respectively, at ambient temperature and at 4° C., each without stirring. The aqueous brightener preparations have a shelf-life of more than 30 days both at ambient and low temperature.
# [2] = Solubility of fluorescent whitening agent in distilled water (saturated solution); assay type: physicochemical; settings: ambient temperature (about 22° C.), grams FWA dissolved in 100 g saturated FWA solution
# Experimental: The solubility of the fluorescent whitening agents was determined as follows: a dry powder of fluorescent whitening agent was added to 50 ml of distilled water until the saturation point was reached. The thus obtained saturated solution was filtered, dried and the dried residue was weighted.
# The indicated percentages are based on the amount of grams of fluorescent whitening agent dissolved in 100 g of the corresponding saturated FWA solution.
Compound,crystalline precipitates on storage [1],solubility [2] [%]
O=C([O-])c1ccc(Nc2nc(Nc3ccc(/C=C/c4ccc(Nc5nc(Nc6ccc(C(=O)[O-])cc6)nc(N(CCO)CCO)n5)cc4S(=O)(=O)[O-])c(S(=O)(=O)[O-])c3)nc(N(CCO)CCO)n2)cc1.[Na+].[Na+].[Na+].[Na+] [FWA 1],no crystalline precipitates,27.8
CC(O)CN(CC(C)O)c1nc(Nc2ccc(C(=O)[O-])cc2)nc(Nc2ccc(/C=C/c3ccc(Nc4nc(Nc5ccc(C(=O)[O-])cc5)nc(N(CC(C)O)CC(C)O)n4)cc3S(=O)(=O)[O-])c(S(=O)(=O)[O-])c2)n1.[Na+].[Na+].[Na+].[Na+] (stereo not shown) [FWA 2],no crystalline precipitates,24.2
